In ChEMBL document CHEMBL5726679, “Cycloalkane derivatives” (2017):

Experiment: Electrophysiological Assay: Current record was obtained by an automated patch clamp system “IonWorks Quattro (Molecular Devices Corporation)” in Population Patch Clamp mode. The operation was conducted in accordance with the operating procedure of the system. A Dulbecco's phosphate buffer containing calcium and magnesium (Sigma) was used as an extracellular fluid, and a low C1-buffer (100 mM K-gluconate, 40 mM KCl, 3.2 mM MgCl2, 5 mM EGTA, 5 mM Hepes, pH 7.3) was used as an intracellular fluid. A test compound was dissolved in dimethylsulfoxide (DMSO) to prepare a 30 mM stock solution, so as to produce 4-fold serial dilutions with the extracellular fluid for attaining a DMSO concentration of 0.3% in measurement.The hNav 1.7/β1/β2 cells cultured to a 70-80% confluent state in a T150 flask (Sumilon) were washed with PBS and subsequently with versene (Invitrogen Corp.), and collected by allowing to react with 0.05% trypsin (Invitrogen Corp.) at 37° C. for 3 minutes. After washing with a culture medium, the resultant cells were suspended in an extracellular fluid at a concentration of […] so as to be used for the measurement. The cell membrane was perforated by using an intracellular fluid including 100 μg/ml amphotericin B (Sigma).
Format: cell-based

- IC50: 280 nM
Structure (SMILES): Cn1nccc1[C@H]1CCC[C@@H]1Oc1cc(F)c(S(=O)(=O)Nc2nncs2)cc1Cl (relative stereo)
